Reference: patent publication US10286022B2, “Medicinal composition of extract of seed of emblica officinalis and method of preparing the same” (priority 2013, dated 2019)

Test system: Triton WR 1339 induced dyslipidemia in Albino rats (Sprague Dawley strain)
Assay: Hypolipidemic activity of enriched amla seed extract, Triton WR 1339 model (Example 28)
Type: in vivo, rat
Description: Fifty two male Albino rats (Sprague Dawley strain) weighing approximately 250-300 gm were selected for the study. The animals were maintained at temperature of 24±2° C., 65% relative humidity and 12 hr light/dark cycle. The rats were acclimatized for two weeks and during this period they had access to standard pellet diet and water ad libitum. After two weeks of acclimatization, all the rats were fasted overnight before injecting Triton WR 1339 (Tyloxapol) and administration of test extracts/standard. The animals were divided into thirteen groups. Following treatment was given to overnight fasted rats: • Group I: Normal control (vehicle only). • Group II: Triton WR 1339 (300 mg/kg, intraperitoneal). • Group III: Triton WR 1339 (300 mg/kg, intraperitoneal) followed by administering sample 1 of Amla seed extract prepared as per example 27 on the same day of triton administration (0.5 mg/kg, per oral). • Group IV: Triton WR 1339 (300 mg/kg, intraperitoneal) followed by Amla seed extract prepared as per example 1 (0.5 mg/kg, per oral). • Group V: Triton WR 1339 (300 mg/kg, intraperitoneal) followed by sample 2 which is a 1:1 combination of amla seed extract (sample 1) prepared as per example 27 and product 1 (Hexane fraction) of amla seed extract prepared as per example 13 on the same day that Triton was administered (0.5 mg/kg, per oral). • Group VI: Triton WR 1339 (300 mg/kg, intraperitoneal) followed by administering product of amla seed extract (product 3) prepared as per example 13 on the same day of triton administration (0.5 mg/kg, per oral). • Group VII: Triton WR 1339 (300 mg/kg, intraperitoneal) followed by product 2 (50% methanol fraction+80% methanol fraction+water fraction) of amla seed extract prepared as per example 13 on the same day that triton was administered (0.5 mg/kg, per oral). • Group VIII: Triton WR 1339 (300 mg/kg, intraperitoneal) followed by product 1 (hexane fraction) of amla seed extract prepared as per example 13 on the same day that triton was administered (0.5 mg/kg, per oral). • Group IX: Triton WR 1339 (300 mg/kg, intraperitoneal) followed by water extract of dried amla seed powder prepared as per example 8 (0.5 mg/kg, per oral). • Group X: Triton WR 1339 (300 mg/kg, intraperitoneal) followed by methanol extract of dried amla seed powder prepared as per example 9 (0.5 mg/kg, per oral). • Group XI: Triton WR 1339 (300 mg/kg, intraperitoneal) followed by water extract of dried amla fruit powder prepared as per example 11 (0.5 mg/kg, per oral). • Group XII: Triton WR 1339 (300 mg/kg, intraperitoneal) followed by methanol extract of dried amla fruit powder prepared as per example 12 (0.5 mg/kg, per oral). • Group XIII: Triton WR 1339 (300 mg/kg, intraperitoneal) followed by atorvastatin administration (10 mg/kg, per oral), on the same day.
The animals were deprived of food for next 24 hours but had free access to water ad libitum. After 24 hours of drug treatment, 2 ml of blood sample was collected from the retro orbital plexus. The blood was allowed to clot and then centrifuged at 3000 rpm for 10 min and the serum was carefully drawn and collected into separate tubes. The serum was analyzed for total cholesterol, triglycerides, high density lipoproteins (HDL), low density lipoproteins (LDL) and very low density lipoproteins (VLDL) levels using auto-analyzer.

[1] = 24 h after Triton i.p. + 10 mg/kg p.o.

CC(C)c1c(C(=O)Nc2ccccc2)c(-c2ccccc2)c(-c2ccc(F)cc2)n1CC[C@@H](O)C[C@@H](O)CC(=O)O [Atorvastatin]
HDL After [1]: 35.1 mg/dL | LDL After [1]: 49.39 mg/dL | TC After [1]: 124.54 mg/dL | TG After [1]: 200.25 mg/dL | VLDL After [1]: 40.06 mg/dL | HDL Before (baseline, 10 mg/kg p.o. group): 32.41 mg/dL | LDL Before (baseline, 10 mg/kg p.o. group): 61.7 mg/dL | TC Before (baseline, 10 mg/kg p.o. group): 104.21 mg/dL | TG Before (baseline, 10 mg/kg p.o. group): 50.54 mg/dL | VLDL Before (baseline, 10 mg/kg p.o. group): 10 mg/dL
